Laboratory results reported in patent publication US5130339A, “Phenylethanolaminomethyltetralins and pharmaceutical use” (Sanofi, priority 1989, dated 1992).
pEC50: −log10 of the molar value.

Legend:
[1] = system: isolated proximal colon rat strips; assay: Reduction of spontaneous contractile activity of isolated proximal colon rat strips (in vitro); type: cell-based; settings: Krebs-Ringer, 37° C., read-out: EC50, on colon (concentration effective to reduce by 50% the contractile activity observed in controls)
Source text: In particular, their effects in reducing colon spontaneous motility have been observed in in vitro normalized pharmacological tests and has been confirmed in the animal in vivo.
In the in vitro tests, the capability of different concentrations of the phenylethanolaminomethyltetralins of the present invention to reduce, under particular normalised conditions, the spontaneous contractile activity of isolated proximal colon rat strips has been evaluated.
Not fasted male rats weighing 250-300 g are sacrificed. The proximal part of the colon, approximately a 2 to 3 cm segment, is removed and suspended in a 20-ml organ bath containing oxygenated (5% CO2, 95% O2) Krebs-Ringer solution with the following mM composition: NaCl 118.4; KCl 4.7; CaCl2 2.45; MgSO4 1.16; NaH2 PO4 3.7; glucose 5.6; NaHCO3 30.9, kept at a constant temperature of 37° C. The colon strips submitted to a 1 g traction spontaneously contract. The test compounds are added thereto after stabilisation of the preparation (2h).
The EC50, i.e. the concentration which is effective to reduce by 50% the contractile activity observed in controls, is determined.

isolated rat uterus = assay: Effect on spontaneous uterus motility, same general method on isolated rat uterus (in vitro); type: cell-based; settings: for selectivity ratio (EC50 uterus / EC50 colon): colon versus uterus; for pEC50: isolated rat uterus, spontaneous motility

pEC50 [1] | pEC50 (isolated rat uterus) | SMILES | selectivity ratio (EC50 uterus / EC50 colon) (isolated rat uterus)
7.37 | 5.61 | COc1ccc2c(c1)CC(CNCC(O)c1cccc(Cl)c1)CC2.Cl (stereo not drawn) [Example 4, N-[(7-methoxy-1,2,3,4-tetrahydronaphth-2-yl)methyl]-2-hydroxy-2-(3-chlorophenyl)ethanamine hydrochloride] | 57
6.71 | 6.46 | COc1ccc2c(c1)CC(NCC(O)c1cccc(Cl)c1)CC2.Cl (stereo not drawn) [Example 7 of EP-B-211,721, N-(7-methoxy-1,2,3,4-tetrahydronaphth-2-yl)-2-hydroxy-2-(3-chlorophenyl)ethanamine hydrochloride] | lower than 2
6.96 | 6.96 | Oc1ccc2c(c1)CC(NCC(O)c1cccc(Cl)c1)CC2 (stereo not drawn) [Example 8 of EP-B-211,721] | 1
8.15 | 7.30 | O=C(O)C(=O)O.Oc1ccc2c(c1)CC(CNCC(O)c1cccc(Cl)c1)CC2 (stereo not drawn) [Example 10, N-[(7-hydroxy-1,2,3,4-tetrahydronaphth-2-yl)methyl]-2-hydroxy-2-(3-chlorophenyl)ethanamine oxalate] | about 7
